In patent publication US4690920A, “Derivative of cephalosporanic acid and pharmaceutical composition comprising the same” (Kureha Kagaku Kogyo Kabushiki Kaisha, priority 1982, dated 1987):

Legend:
[1] = tested on: Escherichia coli IFO 12734; experiment: Anti-bacterial activity, agar plate dilution method (MIC), Escherichia coli; format: cell-based; conditions: 18 to 24 hours, 37° C.
Procedure: (§1) 3-1: The minimum growth-inhibiting concentration (MIC) of each of the compounds represented by the formula (I) was measured according to the standard procedures of Japan Society of Chemotherapy against each of the following bacterial species:
Escherichia coli, IFO 12734 and
(§2) Anti-bacterial activity of each of the compounds produced in Examples 1 to 6 was measured according to the standard procedures of Japan Society of Chemotherapy in agar plate dilution method as follows:
(§3) As a test bacterial species, Escherichia coli IFO 12734 and Staphylococcus aureus IAM 1011, and each strain was inoculated into Mueller-Hinton's culture medium for 18 to 48 hours at 37° C., and while using the thus cultured bacteria, each of the test bacterial liquid containing 10^6 cells in one ml was prepared.
(§4) Separately, after preparing each series of diluted aqueous solutions of each of the compounds produced in Examples 1 to 6, respectively, each of them was mixed in amount of 1/9 time by weight with the Mueller-Hinton's culture medium and each flat agar culture plate was prepared by using the thus formed mixture.

Lactobacillus bifidus = experiment: Effect on the intestinal bacterial colonies: number of Lactobacillus bifidus in feces; format: in vivo, Lactobacillus bifidus (feces of female ICR mice); conditions: oral, 500 mg/kg/day for 2 days; feces one day after administration; before administration 8.0
Procedure: (§5) After collecting the feces of a group of mice, each of the compounds represented by the formula (I) was orally administered to each of the group for 2 continued days at a daily dose rate of 500 mg per kg body weight, and the feces were again collected one day after the administration. Each portion of the thus collected, two kinds of the feces was cultured at 25° C. or 37° C. in a variety of culture media for one to five days to see the state of growth of the following bacteria which are present habitually in the intestine of the mouse: Escherichia coli, Pseudomonas aeruginosa, a streptococcus bacterial species, a lactobacillis bacteria, Lactobacillus bifidus and a bacterioides bacteria.
(§6) Each of the compounds, respectively produced in Examples 1 to 6 was orally administered for two continued days at a daily dosage of 500 mg/kg body weight to each of five female ICR mice of a group after 6 weeks of birth.
(§7) Each of the two fecal specimens respectively collected before and after one day of the administration was diluted with 100 times by weight of an anaerobic diluent (a phosphoric buffer solution) and was ground in a mortar, and 0.1 ml of the ground material was smeared on each of the following culture media for the following bacteria and the thus inoculated culture media were incubated under the following conditions. Thereafter, the number of the following bacteria was determined on each culture medium.
BS agar 37° C., for 5 days, […]

[2] = tested on: A species of Streptococcus; experiment: Effect on the intestinal bacterial colonies: number of a species of Streptococcus in feces; format: in vivo, Streptococcus (feces of female ICR mice); conditions: oral, 500 mg/kg/day for 2 days; feces one day after administration; before administration 6.4
Procedure: as §5, §6, §7
a species of TATAC agar 37° C., for 1 day, […]

[3] = tested on: A species of Bacterioides; experiment: Effect on the intestinal bacterial colonies: number of a species of Bacterioides in feces; format: in vivo, Bacteroides (feces of female ICR mice); conditions: oral, 500 mg/kg/day for 2 days; feces one day after administration; before administration 8.1
Procedure: as §5, §6, §7
a species of NBGT agar 37° C., for 5 days,7 -Bacteroides anaer

[4] = tested on: Staphylococcus aureus IAM 1011; experiment: Effectiveness in treating experimental infectious disease, Staphylococcus aureus; format: in vivo, mice (ddY-SPF) infected with Staphylococcus aureus; conditions: of 20 mice; 2.3×10^8 cells i.p.; 500 mg/kg orally two times; all untreated died on second day
Procedure: (§8) Each of 20 mice of a group was infected by intraperitoneal inoculation of Escherichia coli IFO 12734 or Staphylococcus aureus IAM 1011, and just after or after 4 hours of the inoculation, each of the compounds represented by the formula (I) was orally administered to the inoculated mouse at a dose rate of 500 mg/kg body weight.
(§9) Cells in number of 1.4×10^8 of Escherichia coli IFO 12734 were intraperitoneally inoculated to each of 40 ddY-SPF mice, and each of 20 mice of the 40 mice was administered two times just after and after 4 hours of the inoculation with each 500 mg of the compound produced in Example 4 per kg of body weight orally, and the other 20 mice were kept untreated.
Quite the same experiments as in (10-1) except for intraperitoneously inoculating Staphylococcus aureus IAM 1011 in number of 2.3×10^8instead of 1.4×10^8 cells of E. coli was carried out by administering two times with each 500 mg of the compound produced in Example 4. As a result, all the 20 mice inoculated and not administered died on the second day of inoculation, however, more than 70% of the inoculated and administered 20 mice were alive even on the 7th day of inoculation.

Pseudomonas aeruginosa = experiment: Effect on the intestinal bacterial colonies: number of Pseudomonas aeruginosa in feces; format: in vivo, Pseudomonas aeruginosa (feces of female ICR mice); conditions: oral, 500 mg/kg/day for 2 days; feces one day after administration; before administration <3.0
Procedure: as §5, §6, §7
NAC agar 37° C., for 1 day, […]

[5] = tested on: Escherichia coli IFO 12734; experiment: Effectiveness in treating experimental infectious disease, Escherichia coli; format: in vivo, mice (ddY-SPF) infected with Escherichia coli; conditions: of 20 mice; 1.4×10^8 cells i.p.; 500 mg/kg orally two times, just after and after 4 hours; all untreated died on second day
Procedure: as §8, §9

[6] = tested on: A species of Lactobacillus; experiment: Effect on the intestinal bacterial colonies: number of a species of Lactobacillus in feces; format: in vivo, Lactobacillus (feces of female ICR mice); conditions: oral, 500 mg/kg/day for 2 days; feces one day after administration; before administration 9.0
Procedure: as §5, §6, §7
a species of LBS agar 37° C., for 5 days, […]

Escherichia coli = experiment: Effect on the intestinal bacterial colonies: number of Escherichia coli in feces; format: in vivo, Escherichia coli (feces of female ICR mice); conditions: oral, 500 mg/kg/day for 2 days; feces one day after administration; before administration 7.0
Procedure: as §5, §6, §7
DHL agar 37° C., for 1 day, […]

[7] = tested on: Staphylococcus aureus IAM 1011; experiment: Model test for verifying the activation in living body: growth-inhibition circle with/without rat liver S-9 mix; format: cell-based; conditions: 20 min at 37° C., then 18 hours at 37° C.; for Sign: diameter of growth-inhibiting circle as percentage of that due to compound of formula (II), with the addition of S-9 mix: with the addition of S-9 mix (rat liver homogenate)
Procedure: On each flat culture plate prepared by adding 10^8 cells/ml of a preliminarily cultured Staphylococcus aureus IAM 1011 into 50 times by weight of Mueller-Hinton's agar culture medium, a penicillin cup of 8 mm in diameter was placed, and into each cup 0.1 ml of each of the compounds represented by the formula (I) or 0.1 ml of a cultured product of each of the compounds represented by the formula (I) together with a rat liver homogenate (containing a metabolism-activating enzyme, referred to as S-9 mix) was introduced. The diameter of each growth-inhibition circle formed around the cup after incubating the flat culture plate with the cup for 18 hours at 37° C. was measured, and the thus obtained value was compared to the value obtained by the same procedures except for using the compound represented by the formula (II), the starting compound instead of each of the compounds represented by the formula (I).
As a metabolism-activating enzyme, a rat liver homogenate (S-9, manufactured by Oriental Yeast Co.) was used in the following composition (referred to as S-9 mix, hereinafter):
After mixing 0.1 ml of a solution of the compound to be tested with 0.9 ml of S-9 mix or 0.9 ml of 0.1M phosphoric acid buffer solution, the mixture was subjected to shaking culture for 20 min at 37° C. to prepare a test reaction solution for use in the following experiment.
Staphylococcus aureus IAM 1011 was inoculated to Mueller-Hinton's culture medium and the inoculum was cultured for 18 hours at 37° C. and after adjusting the number of the bacterial cells to 10^8 /ml of the culture medium, 50 times by weight of the Mueller-Hinton's agar culture medium were added to the cultured medium to prepare flat culture plates.
After placing a penicillin-cup of 8 mm in diameter on each of the thus prepared flat culture plates, 0.1 ml of the above-mentioned test reaction solution was introduced into the penicillin-cup, and after leaving the system for 2 hours at 4° C., the system was incubated for 18 hour at 37° C., and the diameter of the growth-inhibition circle around the cup on the culture plate was determined.
The thus obtained diameter of the growth-inhibiting circle due to each of the compounds produced respectively in Examples 1 to 6 was compared to that due to the compound repesente by the formula (II), substituted cephalosporanic acid by percentage, and the following signs were respectively given to the respective compounds as follows: […]

[8] = tested on: Staphylococcus aureus IAM 1011; experiment: Anti-bacterial activity, agar plate dilution method (MIC), Staphylococcus aureus; format: cell-based; conditions: 18 to 24 hours, 37° C.
Procedure: as §1
Staphylococcus aureus, IAM 1011
as §2, §3, §4

SMILES	Minimum concentration of inhibiting growth of Escherichia coli (MIC) ([1]; Mueller-Hinton agar) [microgram/ml]	Log10 value of the number of bacterial cells/g of feces, Lactobacillus bifidus (Lactobacillus bifidus)	Log10 value of the number of bacterial cells/g of feces, a species of Streptococcus [2]	Log10 value of the number of bacterial cells/g of feces, a species of Bacterioides [3]	inoculated and administered mice alive on the 7th day of inoculation [4]	Log10 value of the number of bacterial cells/g of feces, Pseudomonas aeruginosa (Pseudomonas aeruginosa)	mice alive on the 7th day of inoculation [5]	Log10 value of the number of bacterial cells/g of feces, a species of Lactobacillus [6]	Log10 value of the number of bacterial cells/g of feces, Escherichia coli (Escherichia coli)	Sign: diameter of growth-inhibiting circle as percentage of that due to compound of formula (II), with the addition of S-9 mix [7]	Sign: diameter of growth-inhibiting circle as percentage of that due to compound of formula (II), without adding S-9 mix [7]	Minimum concentration of inhibiting growth of Staphylococcus aureus (MIC) ([8]; Mueller-Hinton agar) [microgram/ml]	MIC ([1]; IFO12734, Mueller-Hinton agar, read-out: Minimum concentration of inhibiting growth of Escherichia coli (MIC)) [µg/mL]	MIC ([8]; IAM1011, Mueller-Hinton agar, read-out: Minimum concentration of inhibiting growth of Staphylococcus aureus (MIC)) [µg/mL]
COC(=O)CNC(=O)c1ccc(NC(=O)C2=C(CSc3nnnn3C)CSC3N2C(=O)C3(NC(=O)CSCC#N)OC)cc1 (stereo not drawn) [Example 4, N-(4-carbomethoxymethylcarbamoylphenyl)-{7-beta-cyanomethylthioacetamido-7-alpha-methoxy-3-[(1-methyl-1H-tetrazol-5-yl)thio]methyl-3-cepheme-4-carboxylic}amide]	≥ 100	7.9 Log10 cells/g of feces	5.9 Log10 cells/g of feces	8.3 Log10 cells/g of feces	more than 70%	< 3.0 Log10 cells/g of feces	more than 16 mice	9.3 Log10 cells/g of feces	7.0 Log10 cells/g of feces	+ (1 to 33)	- (0)	≥ 100		
CO[C@@]1(NC(=O)CSCC#N)C(=O)N2C(C(=O)Nc3ccc(O)cc3)=C(CSc3nnnn3C)CS[C@@H]21 [Example 5, N-(4-hydroxyphenyl)-{7-beta-cyanomethylthioacetamido-7-alpha-methoxy-3-[(1-methyl-1H-tetrazol-5-yl)thio]methyl-3-cepheme-4-carboxylic}amide]		8.2 Log10 cells/g of feces	6.6 Log10 cells/g of feces	7.9 Log10 cells/g of feces		< 3.0 Log10 cells/g of feces		9.0 Log10 cells/g of feces	6.7 Log10 cells/g of feces	+ (1 to 33)	- (0)		≥ 100	≥ 100
